The values below come from ChEMBL document CHEMBL4334475, “Aphidicolin Chemistry of the Deep-Sea-Derived Fungus Botryotinia fuckeliana MCCC 3A00494” (J Nat Prod, 2019).

Calls of active or inactive are those of the source. No cut-off for these calls is given here.

The subject of test [1] is HL-60. In words: Induction of DNA damage in human HL60 cells assessed as increase in gammaH2AX expression at 11 to 22 uM by Western blot analysis. In kind it is functional, cell-based. For orientation: A western blot detects proteins with antibodies after separation by electrophoresis.
For test [2], the system named is HL-60. In words: Antiproliferative activity against human HL60 cells assessed as reduction in cell viability after 48 hrs by MTT assay. In kind it is functional, cell-based. The following applies: HL-60, 48 h.
For test [3], the system named is HL-60. In words: Potency index, ratio of aphidicolin IC50 to compound IC50 for antiproliferative activity against human HL60 cells. In kind it is functional.
Test [4] deals with T-24. Nature of the test: Induction of DNA damage in human T24 cells assessed as increase in gammaH2AX expression at 11 to 22 uM by Western blot analysis. In kind it is functional, cell-based.
For test [5], the system named is T-24. Nature of the test: Induction of apoptosis in human T24 cells assessed as increase in PARP cleavage at 11 to 22 uM by Western blot analysis. In kind it is functional, cell-based.
Test [6] deals with T-24. Nature of the test: Antiproliferative activity against human T24 cells assessed as reduction in cell viability after 48 hrs by MTT assay. In kind it is functional, cell-based. Particulars: T-24, 48 h. On the technique in general: Formazan colour is commonly taken as a measure of viable cells.
The subject of test [7] is HL-60. In words: Induction of apoptosis in human HL60 cells assessed as increase in PARP cleavage at 11 to 22 uM by Western blot analysis. In kind it is functional, cell-based.

For orientation: IC50 means the concentration at which inhibition is half-maximal. In the case of `C[C@@]1(CO)[C@H](O)CC[C@@]2(C)[C@H]1C(=O)C[C@H]1C[C@@H]3C[C@@]12CC[C@]3(O)CO`, the outcome in test [1], in test [4], in test [5] and in test [7] was Active. Further, the concentration for half-maximal inhibition (IC50) amounted to 6.1 µM in test [2] and 2.5 µM in test [6]. For the same compound, the “Ratio IC50” value in test [3] amounted to 4.
With `C[C@@]1(CO)[C@H](O)CC[C@@]2(C)[C@H]1CC[C@H]1C[C@@H]3C[C@@]12CC[C@]3(O)CO` [APHIDICOLIN], the half-maximal inhibitory concentration (IC50) in test [2] came out at 24.4 µM.
